Assays:
NIH 3T3 fibroblasts = assay: Cell chemotaxis assay (modified Boyden's chamber), NIH 3T3 fibroblasts; assay type: cell-based
From the text: (§1) NIH/3T3 fibroblasts at passage 126 were purchased from the American Type Culture Collection, Rockville, Md. Cultures from passages 129-133 were used in the chemotaxis assays. Cultures were propagated in DMEM supplemented with 10%. Calf serum and approximately 1% antibiotic antimycotic solution. Human dermal fibroblasts (HDFs) were purchased from Clonetics, Inc. (San Diego, Calif.) at passage 2. Cultures from passages 3-5 were used in the chemotaxis assays. Cultures were cultivated in DMEM supplemented with 20% FBS (Hyclone Laboratories, Inc., Logan, Utah) and approximately 1% antibiotic antimycotic solution (Gibco, Grand Island, N.Y.).
The procedure used to determine cellular chemotaxis was a combination of two known methodologies. A modification of Boyden's chamber was used as follows: Millicell-PCF (Millipore, Inc., Bedford, Mass.) (12.0 μm) 12.0 mm diameter inserts were placed in individual wells of 24 well plates to create the upper and lower chemotaxis chambers. Chemotaxis results were arrived at by performing checkerboard analysis for every combination of cells and growth factors. […] Briefly, cultures were trypsanized and placed in DMEM+0.1% Bovine Serum Albumin (BSA) (Sigma Chemical Co., St. Louis, Mo.) for approximately one hour at 37° C. in a 5% CO2 humidified chamber. Tow to 2.5×10^5 cells in 50 μl were added per insert to the upper chamber of the setup of the 24 well plates. Treatments were added as mentioned above. The assay was kept at 37° C. in a 5% CO2 humidified chamber for 4 hours. All combinations tested were performed in triplicate. At the end of 4 hours, the plates were removed from the incubator and the filters were stained following the protocol for staining included with the Millicell-PCT inserts. Briefly, the fluid surrounding the inside and outside of the Millicell-PCF inserts were removed. Three percent glutaraldehyde (Sigma Chemical Co., St. Louis, Mo.) was added to the outside and inside of the inserts for approximately 20 minutes. Following removal of the 3.0% glutaraldehyde, 0.5% Triton X-100 (E.M. Science, Cherry Hill, N.J.) was added for 5-7 minutes. On removal of the 0.5% Triton X-100, Fisher's Hematoxylin Solution Gill's Formulation (Fisher Scientific, Newark, Del.) No.1 was added for about 10 minutes. This solution was washed off in running distilled water for about 5 minutes. Using a cotton swab the upper side of the filter was swabbed to remove cells which had not migrated. Filters, were mounted lower side facing up on slides in Crystal Mount™ (Biomedia, Inc., Foster City, Calif.) solution and 10 random field were counted per slide both visually at 400× and at 200×using an Image Analyzing System to automate the enumeration of the cells on the underside of the filters.
(§2) As required, checkerboard analysis was carried out to determine random migration, and positive and negative chemotaxis. Growth factors were added to the upper and/or lower chambers to observe whether cells migrated towards the GF alone (chemotaxis), whether migration was random irrespective of whether the growth factor was added to the upper or lower well (chemokinesis) or whether cell migration was against the chemotactic gradient (negative chemotaxis).

[1] = test system: human dermal fibroblasts (HDFs); assay: Cell chemotaxis assay (modified Boyden's chamber), human dermal fibroblasts; assay type: cell-based
From the text: as §1
The procedure used to determine cellular chemotaxis was a combination of two known methodologies. A modification of Boyden's chamber was used as follows: Millicell-PCF (Millipore, Inc., Bedford, Mass.) (12.0 μm) 12.0 mm diameter inserts were placed in individual wells of 24 well plates to create the upper and lower chemotaxis chambers. Chemotaxis results were arrived at by performing checkerboard analysis for every combination of cells and growth factors. Concentrations ranging from 0.1, 1, 10, 100 ng/ml with/without added heparin (10 U/ml) were used for FGF-1, FGF-2 (no heparin) and FGF-4 with all the cell types mentioned in the materials section. Briefly, cultures were trypsanized and placed in DMEM+0.1% Bovine Serum Albumin (BSA) (Sigma Chemical Co., St. Louis, Mo.) for approximately one hour at 37° C. in a 5% CO2 humidified chamber. Tow to 2.5×10^5 cells in 50 μl were added per insert to the upper chamber of the setup of the 24 well plates. Treatments were added as mentioned above. The assay was kept at 37° C. in a 5% CO2 humidified chamber for 4 hours. All combinations tested were performed in triplicate. At the end of 4 hours, the plates were removed from the incubator and the filters were stained following the protocol for staining included with the Millicell-PCT inserts. Briefly, the fluid surrounding the inside and outside of the Millicell-PCF inserts were removed. Three percent glutaraldehyde (Sigma Chemical Co., St. Louis, Mo.) was added to the outside and inside of the inserts for approximately 20 minutes. Following removal of the 3.0% glutaraldehyde, 0.5% Triton X-100 (E.M. Science, Cherry Hill, N.J.) was added for 5-7 minutes. On removal of the 0.5% Triton X-100, Fisher's Hematoxylin Solution Gill's Formulation (Fisher Scientific, Newark, Del.) No.1 was added for about 10 minutes. This solution was washed off in running distilled water for about 5 minutes. Using a cotton swab the upper side of the filter was swabbed to remove cells which had not migrated. Filters, were mounted lower side facing up on slides in Crystal Mount™ (Biomedia, Inc., Foster City, Calif.) solution and 10 random field were counted per slide both visually at 400× and at 200×using an Image Analyzing System to automate the enumeration of the cells on the underside of the filters.
as §2

HBGF-1: heparin binding growth factor-1, also known as ECGF and FGF-1; recombinant HBGF-1β expressed in E. coli
checkerboard analysis (NIH 3T3 fibroblasts): chemotactic | concentration of maximum stimulation of migration (NIH 3T3 fibroblasts; FGF-1 in the presence of 10 U/ml heparin): 10 ng/mL | migrated cells (checkerboard analysis) (NIH 3T3 fibroblasts; lower 0 ng/ml, upper 1 ng/ml): 53.93 +/− 4.152 | migrated cells (checkerboard analysis) (NIH 3T3 fibroblasts; lower 0 ng/ml, upper 5 ng/ml): 27.27 +/− 3.873 | migrated cells (checkerboard analysis) (NIH 3T3 fibroblasts; lower 0 ng/ml, upper 10 ng/ml): 25.96 +/− 4.151 | migrated cells (checkerboard analysis) (NIH 3T3 fibroblasts; lower 1 ng/ml, upper 0 ng/ml): 59.46 +/− 6.89 | migrated cells (checkerboard analysis) (NIH 3T3 fibroblasts; lower 1 ng/ml, upper 1 ng/ml): 36.9 +/− 5.728 | migrated cells (checkerboard analysis) (NIH 3T3 fibroblasts; lower 1 ng/ml, upper 5 ng/ml): 22.1 +/− 9.232 | migrated cells (checkerboard analysis) (NIH 3T3 fibroblasts; lower 1 ng/ml, upper 10 ng/ml): 35.86 +/− 2.074 | migrated cells (checkerboard analysis) (NIH 3T3 fibroblasts; lower 5 ng/ml, upper 0 ng/ml): 64.867 +/− 1.75 | migrated cells (checkerboard analysis) (NIH 3T3 fibroblasts; lower 5 ng/ml, upper 1 ng/ml): 41.44 +/− 1.866 | migrated cells (checkerboard analysis) (NIH 3T3 fibroblasts; lower 5 ng/ml, upper 5 ng/ml): 24.84 +/− 4.337 | migrated cells (checkerboard analysis) (NIH 3T3 fibroblasts; lower 5 ng/ml, upper 10 ng/ml): 41.6 +/− 6.717 | migrated cells (checkerboard analysis) (NIH 3T3 fibroblasts; lower 10 ng/ml, upper 0 ng/ml): 70.83 +/− 2.752 | migrated cells (checkerboard analysis) (NIH 3T3 fibroblasts; lower 10 ng/ml, upper 1 ng/ml): 39.73 +/− 2.428 | migrated cells (checkerboard analysis) (NIH 3T3 fibroblasts; lower 10 ng/ml, upper 5 ng/ml): 39.73 +/− 2.428 | migrated cells (checkerboard analysis) (NIH 3T3 fibroblasts; lower 10 ng/ml, upper 10 ng/ml): 41.83 +/− 6.879 | checkerboard analysis [1]: chemotactic | maximal migratory response over negative control [1]: 18 fold | migrated cells (checkerboard analysis) ([1]; lower 0 ng/ml, upper 0.1 ng/ml): 48. +/− 1.965 | migrated cells (checkerboard analysis) ([1]; lower 0 ng/ml, upper 1 ng/ml): 1.3 +/− 0.351 | migrated cells (checkerboard analysis) ([1]; lower 0 ng/ml, upper 10 ng/ml): 4.6 +/− 2.424 | migrated cells (checkerboard analysis) ([1]; lower 0 ng/ml, upper 100 ng/ml): 2.4 +/− 2.59 | migrated cells (checkerboard analysis) ([1]; lower 0.1 ng/ml, upper 0 ng/ml): 66.46 +/− 3.304 | migrated cells (checkerboard analysis) ([1]; lower 0.1 ng/ml, upper 0.1 ng/ml): 3.5 +/− 1.550 | migrated cells (checkerboard analysis) ([1]; lower 0.1 ng/ml, upper 1 ng/ml): 22.0 +/− 6.621 | migrated cells (checkerboard analysis) ([1]; lower 0.1 ng/ml, upper 10 ng/ml): 9.7 +/− 7.758 | migrated cells (checkerboard analysis) ([1]; lower 0.1 ng/ml, upper 100 ng/ml): 11.6 +/− 8.609 | migrated cells (checkerboard analysis) ([1]; lower 1 ng/ml, upper 0 ng/ml): 90.0 +/− 5.776 | migrated cells (checkerboard analysis) ([1]; lower 1 ng/ml, upper 0.1 ng/ml): 27.7 +/− 8.10 | migrated cells (checkerboard analysis) ([1]; lower 1 ng/ml, upper 1 ng/ml): 52.6 +/− 2.775 | migrated cells (checkerboard analysis) ([1]; lower 1 ng/ml, upper 10 ng/ml): 9.7 +/− 3.553 | migrated cells (checkerboard analysis) ([1]; lower 1 ng/ml, upper 100 ng/ml): 1.83 +/− 2.2 | migrated cells (checkerboard analysis) ([1]; lower 10 ng/ml, upper 0 ng/ml): 92.4 +/− 29.307 | migrated cells (checkerboard analysis) ([1]; lower 10 ng/ml, upper 0.1 ng/ml): 55.1 +/− 7.151 | migrated cells (checkerboard analysis) ([1]; lower 10 ng/ml, upper 1 ng/ml): 44.2 +/− 11.844 | migrated cells (checkerboard analysis) ([1]; lower 10 ng/ml, upper 10 ng/ml): 16.2 +/− 4.781 | migrated cells (checkerboard analysis) ([1]; lower 10 ng/ml, upper 100 ng/ml): 21.2 +/− 6.42 | migrated cells (checkerboard analysis) ([1]; lower 100 ng/ml, upper 0 ng/ml): 65.4 +/− 22.055 | migrated cells (checkerboard analysis) ([1]; lower 100 ng/ml, upper 0.1 ng/ml): 53.7 +/− 7.3118 | migrated cells (checkerboard analysis) ([1]; lower 100 ng/ml, upper 1 ng/ml): 54.9 +/− 18.599 | migrated cells (checkerboard analysis) ([1]; lower 100 ng/ml, upper 10 ng/ml): 49.166 +/− 9.152 | migrated cells (checkerboard analysis) ([1]; lower 100 ng/ml, upper 100 ng/ml): 4.66 +/− 3.3
